Legend:
Conditions in all cases: 48 h
P12-Ichikawa [1] = assay: cell viability relative to DMSO control; higher = less cytotoxic
Outline: (§1)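 Viability was expressed as a per-plate percentage of DMSO wells, with cell-free wells as background. Leukemia cells (NOMO1 or SEM at 500 cells/well, P12-Ichikawa at 1000 cells/well) were adapted for at least four passages in each medium and seeded in 1536-well plates (5 μl). Library compounds in DMSO were pin-dosed over an 11-point threefold series from 47 μM to 0.79 nM, and CellTiter-Glo One luminescence was read after 48 h at 37°C.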

SEM cells [2] = assay: as above
Outline: as §1

NOMO1 [3] = assay: as above
Outline: as §1

P12-Ichikawa [4] = assay: AUC of viability dose-response curve (% viability x log10 dose units); higher = less sensitive
Outline: (§2)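 Library compounds in DMSO were applied for 48 h at 37°C at 11 threefold doses (47 μM to 0.79 nM) to medium-adapted leukemia cells in 1536-well plates holding 500 or 1000 cells/well. Luminescence from CellTiter-Glo One was normalised plate by plate against DMSO and cell-free wells. Area under the curve came from trapezoidal integration of a log-logistic fit, after scaling curves that rose above full viability and discarding those that failed quality control. The fit had four parameters and used log10 doses.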

SEM cells [5] = assay: as above
Outline: as §2

NOMO1 [6] = assay: as above
Outline: as §2

CC[C@H]1OC(=O)[C@H](C)[C@@H](O[C@H]2C[C@@](C)(OC)[C@@H](O)[C@H](C)O2)[C@H](C)[C@@H](O[C@@H]2O[C@H](C)C[C@H](N(C)C)[C@H]2O)[C@](C)(OC)C[C@@H](C)C(=O)[C@H](C)[C@@H](O)[C@]1(C)O
cell viability [%]
Conditions | NOMO1 [3] | P12-Ichikawa [1] | SEM cells [2]
HPLM + 10% dialyzed FBS, 0.000781 µM | 110 | 109 | 96.8
HPLM + 10% dialyzed FBS, 0.00234 µM | 121 | 102 | 95.3
HPLM + 10% dialyzed FBS, 0.00702 µM | 96.8 | 98 | 98.4
HPLM + 10% dialyzed FBS, 0.0211 µM | 105 | 98.7 | 98.4
HPLM + 10% dialyzed FBS, 0.0632 µM | 89.3 | 103 | 103
HPLM + 10% dialyzed FBS, 0.19 µM | 92.2 | 96.7 | 91.7
HPLM + 10% dialyzed FBS, 0.569 µM | 92.6 | 95.8 | 93.8
HPLM + 10% dialyzed FBS, 1.71 µM | 90.9 | 93.2 | 97.3
HPLM + 10% dialyzed FBS, 5.12 µM | 84.9 | 91.6 | 84.6
HPLM + 10% dialyzed FBS, 15.4 µM | 88.3 | 93.5 | 92.7
HPLM + 10% dialyzed FBS, 46.1 µM | 101 | 82.1 | 87.6
RPMI 5 mM glucose + 10% FBS, 0.000781 µM | 103 | 94.3 | 97
RPMI 5 mM glucose + 10% FBS, 0.00234 µM | 101 | 103 | 102
RPMI 5 mM glucose + 10% FBS, 0.00702 µM | 99.5 | 98.6 | 96
RPMI 5 mM glucose + 10% FBS, 0.0211 µM | 101 | 88.4 | 99
RPMI 5 mM glucose + 10% FBS, 0.0632 µM | 97 | 96.3 | 103
RPMI 5 mM glucose + 10% FBS, 0.19 µM | 105 | 98.5 | 106
RPMI 5 mM glucose + 10% FBS, 0.569 µM | 84 | 90.8 | 105
RPMI 5 mM glucose + 10% FBS, 1.71 µM | 92.9 | 89.8 | 95.8
RPMI 5 mM glucose + 10% FBS, 5.12 µM | 81.5 | 86 | 90.4
RPMI 5 mM glucose + 10% FBS, 15.4 µM | 79.2 | 84.2 | 93.4
RPMI 5 mM glucose + 10% FBS, 46.1 µM | 81.2 | 89.6 | 84.7
RPMI 5 mM glucose + 10% dialyzed FBS, 0.000781 µM | 86.3 | 93.2 | 105
RPMI 5 mM glucose + 10% dialyzed FBS, 0.00234 µM | 87.5 | 98.5 | 111
RPMI 5 mM glucose + 10% dialyzed FBS, 0.00702 µM | 83.1 | 96.3 | 111
RPMI 5 mM glucose + 10% dialyzed FBS, 0.0211 µM | 92.6 | 88 | 101
RPMI 5 mM glucose + 10% dialyzed FBS, 0.0632 µM | 93.8 | 94.8 | 110
RPMI 5 mM glucose + 10% dialyzed FBS, 0.19 µM | 87.8 | 94.3 | 105
RPMI 5 mM glucose + 10% dialyzed FBS, 0.569 µM | 79.7 | 90.5 | 117
RPMI 5 mM glucose + 10% dialyzed FBS, 1.71 µM | 80.5 | 85.6 | 114
RPMI 5 mM glucose + 10% dialyzed FBS, 5.12 µM | 84 | 90.8 | 82.4
RPMI 5 mM glucose + 10% dialyzed FBS, 15.4 µM | 84.4 | 94.2 | 93
RPMI 5 mM glucose + 10% dialyzed FBS, 46.1 µM | 83.4 | 81.2 | 83.2

AUC of viability dose-response curve
Conditions | NOMO1 [6] | P12-Ichikawa [4] | SEM cells [5]
HPLM + 10% dialyzed FBS | 405 | 435 | 452
RPMI 5 mM glucose + 10% FBS | 440 | 443 | 461
RPMI 5 mM glucose + 10% dialyzed FBS | 409 | 437 | 452

CCOC(=O)c1c(C)n(C)c2ccc(O)cc12
cell viability [%]
Conditions | NOMO1 [3] | P12-Ichikawa [1] | SEM cells [2]
HPLM + 10% dialyzed FBS, 0.000781 µM | – | 122 | 99.8
HPLM + 10% dialyzed FBS, 0.00234 µM | – | 124 | 95.8
HPLM + 10% dialyzed FBS, 0.00702 µM | – | 124 | 97.6
HPLM + 10% dialyzed FBS, 0.0211 µM | – | 123 | 96
HPLM + 10% dialyzed FBS, 0.0632 µM | – | 128 | 95.6
HPLM + 10% dialyzed FBS, 0.19 µM | – | 122 | 105
HPLM + 10% dialyzed FBS, 0.569 µM | – | 127 | 97
HPLM + 10% dialyzed FBS, 1.71 µM | – | 123 | 103
HPLM + 10% dialyzed FBS, 5.12 µM | – | 107 | 107
HPLM + 10% dialyzed FBS, 15.4 µM | – | 109 | 113
HPLM + 10% dialyzed FBS, 46.1 µM | – | 90.3 | 104
RPMI 5 mM glucose + 10% FBS, 0.000781 µM | – | – | 115
RPMI 5 mM glucose + 10% FBS, 0.00234 µM | – | – | 121
RPMI 5 mM glucose + 10% FBS, 0.00702 µM | – | – | 107
RPMI 5 mM glucose + 10% FBS, 0.0211 µM | – | – | 110
RPMI 5 mM glucose + 10% FBS, 0.0632 µM | – | – | 101
RPMI 5 mM glucose + 10% FBS, 0.19 µM | – | – | 119
RPMI 5 mM glucose + 10% FBS, 0.569 µM | – | – | 108
RPMI 5 mM glucose + 10% FBS, 1.71 µM | – | – | 120
RPMI 5 mM glucose + 10% FBS, 5.12 µM | – | – | 114
RPMI 5 mM glucose + 10% FBS, 15.4 µM | – | – | 124
RPMI 5 mM glucose + 10% FBS, 46.1 µM | – | – | 111
RPMI 5 mM glucose + 10% dialyzed FBS, 0.000781 µM | 115 | – | 115
RPMI 5 mM glucose + 10% dialyzed FBS, 0.00234 µM | 120 | – | 117
RPMI 5 mM glucose + 10% dialyzed FBS, 0.00702 µM | 115 | – | 106
RPMI 5 mM glucose + 10% dialyzed FBS, 0.0211 µM | 113 | – | 118
RPMI 5 mM glucose + 10% dialyzed FBS, 0.0632 µM | 125 | – | 113
RPMI 5 mM glucose + 10% dialyzed FBS, 0.19 µM | 119 | – | 95.5
RPMI 5 mM glucose + 10% dialyzed FBS, 0.569 µM | 124 | – | 106
RPMI 5 mM glucose + 10% dialyzed FBS, 1.71 µM | 120 | – | 112
RPMI 5 mM glucose + 10% dialyzed FBS, 5.12 µM | 108 | – | 113
RPMI 5 mM glucose + 10% dialyzed FBS, 15.4 µM | 101 | – | 117
RPMI 5 mM glucose + 10% dialyzed FBS, 46.1 µM | 96.6 | – | 116

AUC of viability dose-response curve
Conditions | NOMO1 [6] | P12-Ichikawa [4] | SEM cells [5]
HPLM + 10% dialyzed FBS | 468 | 456 | 447
RPMI 5 mM glucose + 10% FBS | 455 | 436 | 462
RPMI 5 mM glucose + 10% dialyzed FBS | 461 | 443 | 463

Source: the supplement of paper PMC11451515
